Experimental data taken from patent publication US9580444B2, “Polycyclic pyrazolinone derivative and herbicide comprising same as effective component thereof” (priority 2013, dated 2017).

Tests used:
Assay type in all cases: in vivo
[1] = system: Monochoria vaginalis (monochoria); experiment: Test Example-1: herbicidal effect by a treatment before weeds are generated under submerged conditions; settings: 500 g a.i/ha, pre-emergence treatment, about 15 days after treatment, score 0-5
How it was run: (§1)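 Weed seeds were sown in puddled paddy soil under flooding, then the diluted formulated compound was added to the water the same day at a predetermined dosage, and weed control was rated roughly 15 days afterwards in six stages (0–5).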

[2] = system: Echinochloa oryzicola (barnyard grass); experiment: as above; settings: 500 g a.i/ha, pre-emergence treatment, about 15 days after treatment, score 0-5
How it was run: as §1

[3] = system: Scirpus juncoides (bulrush); experiment: as above; settings: 500 g a.i/ha, pre-emergence treatment, about 15 days after treatment, score 0-5
How it was run: as §1

[4] = system: Cyperus difformis (smallflower umbrella plant); experiment: as above; settings: 500 g a.i/ha, pre-emergence treatment, about 15 days after treatment, score 0-5
How it was run: as §1

[5] = system: other annual broad leaf weeds (Lindernia procumbens, Rotala indica, Elatine triandra); experiment: as above; settings: 500 g a.i/ha, pre-emergence treatment, about 15 days after treatment, score 0-5
How it was run: as §1

[6] = system: Eleocharis acicularis (needle spikerush); experiment: as above; settings: 500 g a.i/ha, pre-emergence treatment, about 15 days after treatment, score 0-5
How it was run: as §1

corn = experiment: Test Example-4: phytotoxicity by a foliage treatment after weeds are generated under upland field conditions; settings: 500 g a.i/ha, foliage treatment after emergence, about 14 days after treatment, score 0-5
How it was run: (§2)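 Read-out is a visual six-stage score from 0 to 5 for weed control or corn phytotoxicity, taken about 14 days after a uniform foliar spray. Plants had grown 14 days from seed in upland soil before the compound was applied at a predetermined dosage in 4000 L water per hectare.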

[7] = system: Amaranthus viridis (green amaranthus); experiment: Test Example-4: herbicidal effect by a foliage treatment after weeds are generated under upland field conditions; settings: 500 g a.i/ha, foliage treatment after emergence, about 14 days after treatment, score 0-5
How it was run: as §2

[8] = system: Abutilon theophrasti (velvetleaf); experiment: as above; settings: 500 g a.i/ha, foliage treatment after emergence, about 14 days after treatment, score 0-5
How it was run: as §2

[9] = system: Chenopodium album (common lambsquarters); experiment: as above; settings: 500 g a.i/ha, foliage treatment after emergence, about 14 days after treatment, score 0-5
How it was run: as §2

In the case of COCOc1cc(-c2c(Cl)n3n(c2=O)CCCC3)c(F)cc1F [Example 1-90], the “Herbicidal effect Monochoria vaginalis” value [1] is reported as 5 (Herbicidal effect/phytotoxicity was 90% or greater), the “Herbicidal effect Echinochloa oryzicola” value [2] is reported as 5 (Herbicidal effect/phytotoxicity was 90% or greater) and the “Herbicidal effect Scirpus juncoides” value [3] is reported as 5 (Herbicidal effect/phytotoxicity was 90% or greater). The “Herbicidal effect Cyperus difformis” value [4] was 5 (Herbicidal effect/phytotoxicity was 90% or greater), the “Herbicidal effect Broadleaf weed” value [5] was 5 (Herbicidal effect/phytotoxicity was 90% or greater) and the “Herbicidal effect Eleocharis acicularis” value [6] was 5 (Herbicidal effect/phytotoxicity was 90% or greater). For the same molecule, the “Phytotoxicity Corn” value (corn) was 3 (Herbicidal effect/phytotoxicity was 50% to 70%), the “Herbicidal effect Amaranthus viridis” value [7] was 5 (Herbicidal effect/phytotoxicity was 90% or greater) and the “Herbicidal effect Abutilon theophrast” value [8] was 5 (Herbicidal effect/phytotoxicity was 90% or greater). The “Herbicidal effect Chenopodium album” value [9] was 5 (Herbicidal effect/phytotoxicity was 90% or greater).
For C=CCOc1cc(-c2c(Cl)n3n(c2=O)CCCC3)c(F)cc1F [Example 1-101], the “Herbicidal effect Monochoria vaginalis” value [1] was 5 (Herbicidal effect/phytotoxicity was 90% or greater), the “Herbicidal effect Echinochloa oryzicola” value [2] was 5 (Herbicidal effect/phytotoxicity was 90% or greater) and the “Herbicidal effect Scirpus juncoides” value [3] was 5 (Herbicidal effect/phytotoxicity was 90% or greater). The “Herbicidal effect Cyperus difformis” value [4] was 5 (Herbicidal effect/phytotoxicity was 90% or greater), the “Herbicidal effect Broadleaf weed” value [5] was 5 (Herbicidal effect/phytotoxicity was 90% or greater) and the “Herbicidal effect Eleocharis acicularis” value [6] was 5 (Herbicidal effect/phytotoxicity was 90% or greater). For the same molecule, the “Phytotoxicity Corn” value (corn) was 3 (Herbicidal effect/phytotoxicity was 50% to 70%), the “Herbicidal effect Amaranthus viridis” value [7] was 5 (Herbicidal effect/phytotoxicity was 90% or greater) and the “Herbicidal effect Abutilon theophrast” value [8] was 5 (Herbicidal effect/phytotoxicity was 90% or greater). For the same molecule, the “Herbicidal effect Chenopodium album” value [9] was 5 (Herbicidal effect/phytotoxicity was 90% or greater).
In the case of C#CCOc1cc(-c2c(Cl)n3n(c2=O)CCCC3)c(F)cc1F [Example 1-113], the “Herbicidal effect Monochoria vaginalis” value [1] is reported as 5 (Herbicidal effect/phytotoxicity was 90% or greater), the “Herbicidal effect Echinochloa oryzicola” value [2] is reported as 5 (Herbicidal effect/phytotoxicity was 90% or greater) and the “Herbicidal effect Scirpus juncoides” value [3] is reported as 5 (Herbicidal effect/phytotoxicity was 90% or greater). For the same molecule, the “Herbicidal effect Cyperus difformis” value [4] was 5 (Herbicidal effect/phytotoxicity was 90% or greater), the “Herbicidal effect Broadleaf weed” value [5] was 5 (Herbicidal effect/phytotoxicity was 90% or greater) and the “Herbicidal effect Eleocharis acicularis” value [6] was 5 (Herbicidal effect/phytotoxicity was 90% or greater). For the same molecule, the “Phytotoxicity Corn” value (corn) was 3 (Herbicidal effect/phytotoxicity was 50% to 70%), the “Herbicidal effect Amaranthus viridis” value [7] was 5 (Herbicidal effect/phytotoxicity was 90% or greater) and the “Herbicidal effect Abutilon theophrast” value [8] was 5 (Herbicidal effect/phytotoxicity was 90% or greater). For the same molecule, the “Herbicidal effect Chenopodium album” value [9] was 5 (Herbicidal effect/phytotoxicity was 90% or greater).
With C#CC(C)Oc1cc(-c2c(Cl)n3n(c2=O)CCCC3)c(F)cc1F (stereo not shown) [Example 1-114] the “Herbicidal effect Monochoria vaginalis” value [1] was 5 (Herbicidal effect/phytotoxicity was 90% or greater), the “Herbicidal effect Echinochloa oryzicola” value [2] was 5 (Herbicidal effect/phytotoxicity was 90% or greater) and the “Herbicidal effect Scirpus juncoides” value [3] was 5 (Herbicidal effect/phytotoxicity was 90% or greater). The “Herbicidal effect Cyperus difformis” value [4] was 5 (Herbicidal effect/phytotoxicity was 90% or greater), the “Herbicidal effect Broadleaf weed” value [5] was 5 (Herbicidal effect/phytotoxicity was 90% or greater) and the “Herbicidal effect Eleocharis acicularis” value [6] was 5 (Herbicidal effect/phytotoxicity was 90% or greater). For the same molecule, the “Phytotoxicity Corn” value (corn) was 3 (Herbicidal effect/phytotoxicity was 50% to 70%), the “Herbicidal effect Amaranthus viridis” value [7] was 5 (Herbicidal effect/phytotoxicity was 90% or greater) and the “Herbicidal effect Abutilon theophrast” value [8] was 5 (Herbicidal effect/phytotoxicity was 90% or greater). The “Herbicidal effect Chenopodium album” value [9] was 5 (Herbicidal effect/phytotoxicity was 90% or greater).
For CC#CCOc1cc(-c2c(Cl)n3n(c2=O)CCCC3)c(F)cc1F [Example 1-115], the “Herbicidal effect Monochoria vaginalis” value [1] was 5 (Herbicidal effect/phytotoxicity was 90% or greater), the “Herbicidal effect Echinochloa oryzicola” value [2] was 5 (Herbicidal effect/phytotoxicity was 90% or greater) and the “Herbicidal effect Scirpus juncoides” value [3] was 5 (Herbicidal effect/phytotoxicity was 90% or greater). The “Herbicidal effect Cyperus difformis” value [4] was 5 (Herbicidal effect/phytotoxicity was 90% or greater), the “Herbicidal effect Broadleaf weed” value [5] was 5 (Herbicidal effect/phytotoxicity was 90% or greater) and the “Herbicidal effect Eleocharis acicularis” value [6] was 5 (Herbicidal effect/phytotoxicity was 90% or greater). For the same molecule, the “Phytotoxicity Corn” value (corn) was 3 (Herbicidal effect/phytotoxicity was 50% to 70%), the “Herbicidal effect Amaranthus viridis” value [7] was 5 (Herbicidal effect/phytotoxicity was 90% or greater) and the “Herbicidal effect Abutilon theophrast” value [8] was 5 (Herbicidal effect/phytotoxicity was 90% or greater). The “Herbicidal effect Chenopodium album” value [9] was 5 (Herbicidal effect/phytotoxicity was 90% or greater).
In the case of O=c1c(-c2ccc(Cl)cc2F)c(Cl)n2n1CCCC2 [Example 1-125], the “Herbicidal effect Monochoria vaginalis” value [1] is reported as 5 (Herbicidal effect/phytotoxicity was 90% or greater), the “Herbicidal effect Echinochloa oryzicola” value [2] is reported as 5 (Herbicidal effect/phytotoxicity was 90% or greater) and the “Herbicidal effect Scirpus juncoides” value [3] is reported as 5 (Herbicidal effect/phytotoxicity was 90% or greater). For the same molecule, the “Herbicidal effect Cyperus difformis” value [4] was 5 (Herbicidal effect/phytotoxicity was 90% or greater), the “Herbicidal effect Broadleaf weed” value [5] was 5 (Herbicidal effect/phytotoxicity was 90% or greater) and the “Herbicidal effect Eleocharis acicularis” value [6] was 5 (Herbicidal effect/phytotoxicity was 90% or greater). For the same molecule, the “Phytotoxicity Corn” value (corn) was 1 (Herbicidal effect/phytotoxicity was 10% to 30%), the “Herbicidal effect Amaranthus viridis” value [7] was 5 (Herbicidal effect/phytotoxicity was 90% or greater) and the “Herbicidal effect Abutilon theophrast” value [8] was 5 (Herbicidal effect/phytotoxicity was 90% or greater). For the same molecule, the “Herbicidal effect Chenopodium album” value [9] was 5 (Herbicidal effect/phytotoxicity was 90% or greater).
With Cc1cc(-c2c(Cl)n3n(c2=O)CCCC3)c(F)cc1Cl [Example 1-130] the “Herbicidal effect Monochoria vaginalis” value [1] was 5 (Herbicidal effect/phytotoxicity was 90% or greater), the “Herbicidal effect Echinochloa oryzicola” value [2] was 5 (Herbicidal effect/phytotoxicity was 90% or greater) and the “Herbicidal effect Scirpus juncoides” value [3] was 5 (Herbicidal effect/phytotoxicity was 90% or greater). For the same molecule, the “Herbicidal effect Cyperus difformis” value [4] was 5 (Herbicidal effect/phytotoxicity was 90% or greater), the “Herbicidal effect Broadleaf weed” value [5] was 5 (Herbicidal effect/phytotoxicity was 90% or greater) and the “Herbicidal effect Eleocharis acicularis” value [6] was 5 (Herbicidal effect/phytotoxicity was 90% or greater). The “Phytotoxicity Corn” value (corn) was 1 (Herbicidal effect/phytotoxicity was 10% to 30%), the “Herbicidal effect Amaranthus viridis” value [7] was 5 (Herbicidal effect/phytotoxicity was 90% or greater) and the “Herbicidal effect Abutilon theophrast” value [8] was 5 (Herbicidal effect/phytotoxicity was 90% or greater). The “Herbicidal effect Chenopodium album” value [9] was 5 (Herbicidal effect/phytotoxicity was 90% or greater).
For COc1cc(-c2c(Cl)n3n(c2=O)CCCC3)c(F)cc1Cl [Example 1-140], the “Herbicidal effect Monochoria vaginalis” value [1] was 5 (Herbicidal effect/phytotoxicity was 90% or greater), the “Herbicidal effect Echinochloa oryzicola” value [2] was 5 (Herbicidal effect/phytotoxicity was 90% or greater) and the “Herbicidal effect Scirpus juncoides” value [3] was 5 (Herbicidal effect/phytotoxicity was 90% or greater). The “Herbicidal effect Cyperus difformis” value [4] was 5 (Herbicidal effect/phytotoxicity was 90% or greater), the “Herbicidal effect Broadleaf weed” value [5] was 5 (Herbicidal effect/phytotoxicity was 90% or greater) and the “Herbicidal effect Eleocharis acicularis” value [6] was 5 (Herbicidal effect/phytotoxicity was 90% or greater). The “Phytotoxicity Corn” value (corn) was 2 (Herbicidal effect/phytotoxicity was 30% to 50%), the “Herbicidal effect Amaranthus viridis” value [7] was 5 (Herbicidal effect/phytotoxicity was 90% or greater) and the “Herbicidal effect Abutilon theophrast” value [8] was 5 (Herbicidal effect/phytotoxicity was 90% or greater). For the same molecule, the “Herbicidal effect Chenopodium album” value [9] was 5 (Herbicidal effect/phytotoxicity was 90% or greater).
In the case of CCOc1cc(-c2c(Cl)n3n(c2=O)CCCC3)c(F)cc1Cl [Example 1-146], the “Herbicidal effect Monochoria vaginalis” value [1] is reported as 5 (Herbicidal effect/phytotoxicity was 90% or greater), the “Herbicidal effect Echinochloa oryzicola” value [2] is reported as 5 (Herbicidal effect/phytotoxicity was 90% or greater) and the “Herbicidal effect Scirpus juncoides” value [3] is reported as 5 (Herbicidal effect/phytotoxicity was 90% or greater). For the same molecule, the “Herbicidal effect Cyperus difformis” value [4] was 5 (Herbicidal effect/phytotoxicity was 90% or greater), the “Herbicidal effect Broadleaf weed” value [5] was 5 (Herbicidal effect/phytotoxicity was 90% or greater) and the “Herbicidal effect Eleocharis acicularis” value [6] was 5 (Herbicidal effect/phytotoxicity was 90% or greater). For the same molecule, the “Phytotoxicity Corn” value (corn) was 0 (Herbicidal effect/phytotoxicity was 0% to 10%), the “Herbicidal effect Amaranthus viridis” value [7] was 5 (Herbicidal effect/phytotoxicity was 90% or greater) and the “Herbicidal effect Abutilon theophrast” value [8] was 5 (Herbicidal effect/phytotoxicity was 90% or greater). The “Herbicidal effect Chenopodium album” value [9] was 5 (Herbicidal effect/phytotoxicity was 90% or greater).
CC(C)COc1cc(-c2c(Cl)n3n(c2=O)CCCC3)c(F)cc1Cl [Example 1-156] was tested, and the “Herbicidal effect Monochoria vaginalis” value [1] was 5 (Herbicidal effect/phytotoxicity was 90% or greater), the “Herbicidal effect Echinochloa oryzicola” value [2] was 5 (Herbicidal effect/phytotoxicity was 90% or greater) and the “Herbicidal effect Scirpus juncoides” value [3] was 5 (Herbicidal effect/phytotoxicity was 90% or greater). For the same molecule, the “Herbicidal effect Cyperus difformis” value [4] was 5 (Herbicidal effect/phytotoxicity was 90% or greater), the “Herbicidal effect Broadleaf weed” value [5] was 5 (Herbicidal effect/phytotoxicity was 90% or greater) and the “Herbicidal effect Eleocharis acicularis” value [6] was 5 (Herbicidal effect/phytotoxicity was 90% or greater). The “Phytotoxicity Corn” value (corn) was 2 (Herbicidal effect/phytotoxicity was 30% to 50%), the “Herbicidal effect Amaranthus viridis” value [7] was 5 (Herbicidal effect/phytotoxicity was 90% or greater) and the “Herbicidal effect Abutilon theophrast” value [8] was 5 (Herbicidal effect/phytotoxicity was 90% or greater). For the same molecule, the “Herbicidal effect Chenopodium album” value [9] was 5 (Herbicidal effect/phytotoxicity was 90% or greater).
